Earlier results as cited in US7709469B2, “P2X7 receptor antagonists and methods of use” (Abbott Laboratories, priority 2005, dated 2010).

Assays:
P2X7 [1] = biological target: T1, P2X7 (Rattus norvegicus, UniProt Q64663); design: Rats with SCI were administered P2X7 receptor irreversible antagonists oATP and PPADS; host or cells: living rats (endogenous receptor); details: rats with SCI
T1 sequence (Q64663 1-595): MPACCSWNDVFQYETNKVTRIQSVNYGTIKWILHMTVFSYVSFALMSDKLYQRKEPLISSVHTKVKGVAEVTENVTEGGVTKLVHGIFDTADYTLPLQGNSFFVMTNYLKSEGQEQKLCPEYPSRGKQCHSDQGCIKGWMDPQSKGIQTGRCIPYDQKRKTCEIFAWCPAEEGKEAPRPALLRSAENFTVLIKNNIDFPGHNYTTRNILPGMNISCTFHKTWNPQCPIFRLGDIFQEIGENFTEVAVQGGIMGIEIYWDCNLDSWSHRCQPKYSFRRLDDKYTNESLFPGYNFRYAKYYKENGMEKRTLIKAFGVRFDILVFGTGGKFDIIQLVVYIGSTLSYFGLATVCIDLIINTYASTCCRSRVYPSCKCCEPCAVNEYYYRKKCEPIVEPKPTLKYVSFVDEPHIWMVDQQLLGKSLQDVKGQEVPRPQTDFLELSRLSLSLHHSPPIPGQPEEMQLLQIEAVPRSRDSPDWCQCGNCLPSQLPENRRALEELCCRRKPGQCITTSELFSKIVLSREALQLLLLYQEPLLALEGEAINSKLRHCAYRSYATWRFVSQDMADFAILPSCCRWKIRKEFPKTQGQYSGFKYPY

P2X7 [2] = biological target: T1, P2X7; design: host or cells: living rats (endogenous receptor); details: inflamed rats

| SMILES | histological injury and recovery of motor function after SCI (P2X7 [1]) | antinociceptive properties (P2X7 [2]) |
| --- | --- | --- |
| Nc1ncnc2c1ncn2[C@@H](C=O)O[C@@H](C=O)COP(=O)(O)OP(=O)(O)OP(=O)(O)O [oATP, Oxidized ATP] | decrease of histological injury and improved recovery of motor function | possess peripherally mediated antinociceptive properties |
| Cc1nc(N=Nc2ccc(S(=O)(=O)O)cc2S(=O)(=O)O)c(COP(=O)(O)O)c(C=O)c1O [PPADS] | decrease of histological injury and improved recovery of motor function |  |
